According to ChEMBL document CHEMBL4610081, “Anti-inflammatory Metabolites from Chaetomium nigricolor” (J Nat Prod, 2020):
Activity calls are given as the source filed them. No cut-off for these calls is given here.

Test system: RAW264.7
Assay: Antiinflammatory activity against mouse RAW264.7 cells assessed as inhibition of LPS-induced NO production preincubated for 3 hrs followed by LPS-stimulation and measured after 24 hrs by Griess reagent based assay
Type: functional, cell-based

SMILES: COc1cc(OC)c2c(c1)cc(O)c1c(=O)cc(C)oc12
- Activity: inactive
